Results from patent US20230348362A1, “LIPID COMPOUNDS AND LIPID NANOPARTICLE COMPOSITIONS” (Suzhou Abogen Biosciences Co., Ltd., priority 2021, published 2023).

What was measured:
Format in all cases: physicochemical
[1] = Apparent pKa of LNP formulations, TNS fluorescence assay; settings: LNP cationic lipid/DSPC/cholesterol/DMG-PEG 50/10/38.5/1.5 mol %
How it was run: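 LNPs (cationic lipid/DSPC/cholesterol/DMG-PEG 50/10/38.5/1.5 mol %) diluted to 0.1 mg/mL total lipid in citrate/phosphate/borate/NaCl buffers spanning pH 3–9 with TNS. Fluorescence (ex 325, em 435 nm) read at room temperature; pKa taken as the pH at half-maximal intensity from sigmoidal fit.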

[2] = Encapsulation efficiency of lipid nanoparticles, Quant-it Ribogreen RNA assay; settings: LNP of lipid/DSPC/cholesterol/PEG-lipid 50:10:38.5:1.5 encapsulating hEPO mRNA
How it was run: (§1)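 LNPs made from ionizable lipid/DSPC/cholesterol/PEG-lipid (50:10:38.5:1.5) and mRNA in citrate pH 4 by microfluidic mixing, lipid:mRNA about 10:1–30:1 w/w, then dialysed into DPBS and filtered. Size and PDI measured by DLS in backscatter mode; encapsulation efficiency measured by RiboGreen assay.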

[3] = Lipid nanoparticle size and polydispersity by dynamic light scattering; settings: LNP of lipid/DSPC/cholesterol/PEG-lipid 50:10:38.5:1.5 encapsulating hEPO mRNA
How it was run: as §1

| Compound | Apparent Pka [1] | Encapsulation Efficiency [2] [%] | polydispersity [3] | size (nm) [3] [nm] |
| --- | --- | --- | --- | --- |
| CCCCCCCCC(CCCCCC)CNC(=O)CCCCCCCN(CCO)CCN(CCCCC(COC(=O)CCCCCCC)COC(=O)CCCCCCC)C1CCCCCCC1 (stereo not shown) [Compound 215] | 6.542 | 90.80 | 0.033 | 67.78 |
| CCCCCCCCCCCOC(=O)CCCCCN(CCN(CCO)CCCCCC(=O)OCC(CCCCCCCCCC)CCCCCCCCCC)C1CCCCC1 [Compound 47] | 6.298 | 91.0 | 0.037 | 66.29 |
| CCCCCCCCC(CCCCCC)CNC(=O)CCCCCN(CCCCCO)CCN(CCCCC(COC(=O)CCCCCCC)COC(=O)CCCCCCC)C1CCCCCC1 (stereo not shown) [Compound 225] | 6.668 | 92.20 | 0.033 | 76.81 |
| CCCCCCCCC(CCCCCCCC)COC(=O)CCCCCN(CCO)CCN(CCCCCC(=O)OCC(CCCCCCCC)CCCCCCCC)C1CC(OC)C1 (stereo not shown) [Compound 67] | 5.980 | 95.1 | 0.023 | 75.57 |
| CCCCCCCCC(CCCCCCCC)COC(=O)CCCCCN(C)C1CCC(N(CCO)CCCCCC(=O)OCC(CCCCCCCC)CCCCCCCC)CC1 (stereo not shown) [Compound 64] | 7.262 | 97.95 | 0.177 | 81.36 |
| CCCCCCCCC(CCCCCC)COC(=O)CCCCCN(CCO)CCN(CCCCC(COC(=O)CCCCCCC)COC(=O)CCCCCCC)C1CCCCCC1 (stereo not shown) [Compound 142] | 6.218 | 87.29 | 0.055 | 71.85 |
| CCCCCCCCC(CCCCCCCC)COC(=O)CCCCCN(CCN(CCO)CCOCCC(=O)OCC(CCCCCCCC)CCCCCCCC)C1CCCCC1 [Compound 111] | 6.108 | 92.05 | 0.069 | 76.24 |
| CCCCCCCCC(CCCCCC)CNC(=O)CCCCCN(CCCCCO)CCN(CCCCC(COC(=O)CCCCCCC)COC(=O)CCCCCCC)C1CCCCC1 (stereo not shown) [Compound 209] | 6.608 | 87.79 | 0.039 | 95.78 |
| CCCCCCCCC(CCCCCCCC)CNC(=O)CCCCCN(CCNc1c(NC)c(=O)c1=O)CCN(C)CCCCCC(=O)OCC(CCCCCCCC)CCCCCCCC [Compound 96] | 7.287 | 97.00 | 0.087 | 57.20 |
| CCCCCCCCOC(=O)C(CCCCN(CCN(CCO)CCCCCC(=O)OCC(CCCCCC)CCCCCCCC)C1CCC1)C(=O)OCCCCCCCC (stereo not shown) [Compound 223] | 6.395 | 93.03 | 0.043 | 70.98 |
| CCCCCCCCC(CCCCCCCC)COC(=O)/C=C/CN(CCO)CCN(CCCCCC(=O)OCC(CCCCCCCC)CCCCCCCC)C1CCC1 [Compound 63] | 6.147 | 93.93 | 0.044 | 87.84 |
| CCCCCCCCCCCOC(=O)CCCCCN(CCN(CCO)CCCCCC(=O)OCC(CCCCCCCC)CCCCCCCC)C1CC(F)(F)C1 [Compound 50] | 5.786 | 93.4 | 0.235 | 59.59 |
| CCCCCCCCC(CCCCCC)COC(=O)CCCCCN(CC=C(C)C)CCN(CCO)CCCCC1COC(C(CCCCCC)CCCCCCCC)OC1 (stereo not shown) [Compound 151] | 6.368 | 92.43 | 0.064 | 61.84 |
| CCCCCCCC(=O)OCC(COCCN(CCO)CCN(CCOCC(COC(=O)CCCCCCC)COC(=O)CCCCCCC)C1CCC1)COC(=O)CCCCCCC [Compound 178] | 6.337 | 89.15 | 0.056 | 96.32 |
| CCCCCCCCC(CCCCCCCC)CNC(=O)CCCCCN(CC=C(C)C)CCN(CCO)CCCCCC(=O)NCC(CCCCCCCC)CCCCCCCC [Compound 122] | 6.817 | 93.47 | 0.066 | 65.77 |
| CCCCCCCCCCCOC(=O)CCCCCN(CCN(CCCCCC(=O)OCC(CCCCCCCC)CCCCCCCC)CCNc1c(NC)c(=O)c1=O)C1CCC1 [Compound 82] | 6.599 | 91.54 | 0.066 | 67.32 |
| C/C=C/CN(CCCCCC(=O)OCC(CCCCCCCC)CCCCCCCC)CCN(CCO)CCCCCC(=O)OCC(CCCCCCCC)CCCCCCCC [Compound 41] | 6.134 | 88.2 | 0.067 | 55.24 |

| Compound | Apparent Pka [1] | Encapsulation Efficiency [2] [%] | polydispersity [3] | size (nm) [3] [nm] |
| --- | --- | --- | --- | --- |
| CCCCCCCCCCCOC(=O)CCCCCN(CCN(CCO)CCCCC(COC(=O)CCCCCCC)COC(=O)CCCCCCC)C1CCCC1 [Compound 183] | 6.858 | 92.26 | 0.032 | 103.2 |
| CCCCCCCCCCCOC(=O)CCCCCN(CCN(CCO)CCCCCC(=O)OCC(CCCCCC)CCCCCCCC)C1CC1 (stereo not shown) [Compound 3] | 6.32 | 93.6 | 0.131 | 73.33 |
| CCCCCCCC(=O)OCC(CCCCN(CCO)CCN(CCCCC(COC(=O)CCCCCCC)COC(=O)CCCCCCC)C1CCCCCCC1)COC(=O)CCCCCCC [Compound 161] | 6.02 | 87.54 | 0.090 | 72.08 |
| CCCCCCCCC(CCCCCCCC)COC(=O)CCCCCN(C/C=C/CN(CCCCCC(=O)OCC(CCCCCCCC)CCCCCCCC)C1CCC1)CCO [Compound 65] | 6.443 | 93.10 | 0.044 | 104.2 |
| CCCCCCCC(=O)OCC(COCCN(CCO)CCN(CCOCC(COC(=O)CCCCCCC)COC(=O)CCCCCCC)C1CCCCC1)COC(=O)CCCCCCC [Compound 179] | 6.322 | 89.97 | 0.041 | 103.40 |
| CCCCCCCCCCCC(=O)OCCCCCN(CCN(CCO)CCOCCOC(=O)CC(CCCCCCCC)CCCCCCCC)C1CCC1 [Compound 97] | 6.912 | 88.12 | 0.045 | 76.13 |
| CCCCCCCC(=O)OCC(CCCCN(CCO)CCCCN(CCCCC(COC(=O)CCCCCCC)COC(=O)CCCCCCC)C1CCCCC1)COC(=O)CCCCCCC [Compound 185] | 6.593 | 90.39 | 0.111 | 75.27 |
| CCCCCCCCC(CCCCCCCC)CC(=O)OCCCCCN(CCO)CCN(CCCCCOC(=O)CC(CCCCCCCC)CCCCCCCC)C1CCC1 [Compound 62] | 6.21 | 92.0 | 0.034 | 68.28 |
| CCCCCCCCC(CCCCCCCC)CNC(=O)CCCCCN(CCO)CCN(CCCCCC(=O)OCC(CCCCCCCC)CCCCCCCC)C1CCC1 [Compound 15] | 6.724 | 86.0 | 0.022 | 65.95 |
| CCCCC/C=C\CCCC(CCC/C=C\CCCCC)COC(=O)CCCCCN(CCO)CCN(CCCCCC(=O)OCC(CCC/C=C\CCCCC)CCC/C=C\CCCCC)C1CCCCC1 [Compound 18] | 6.018 | 96.4 | 0.049 | 56.64 |
| CCCCCCCCC(CCCCCCCC)CNC(=O)CCCCCN(CCN(CCCCCCCCCO)CCCCCC(=O)OCC(CCCCCCCC)CCCCCCCC)C1CCC1 [Compound 78] | 6.195 | 88.18 | 0.019 | 100.3 |
| CCCCCCCCC(CCCCCC)CNC(=O)CCCCN(CCO)CCN(CCCCC(COC(=O)CCCCCCC)COC(=O)CCCCCCC)C1CCCC1 (stereo not shown) [Compound 227] | 6.872 | 91.70 | 0.048 | 83.54 |
| CCCCCCCCC(CCCCCC)CNC(=O)CCCCCCCN(CCO)CCN(CCCCC(COC(=O)CCCCCCC)COC(=O)CCCCCCC)C1CCCCC1 (stereo not shown) [Compound 235] | 6.545 | 88.53 | 0.093 | 67.92 |
| CCCCCCCCC(CCCCCCCC)CC(=O)NCCCCCN(CCN(CCO)CCCCCOC(=O)CC(CCCCCCCC)CCCCCCCC)C1CCCC1 [Compound 72] | 6.633 | 92.60 | 0.033 | 74.18 |
| CCCCCCCCC(CCCCCCCC)COC(=O)CCCCCN(CCO)CCN(CC=C(C)C)CCOCCC(=O)OCC(CCCCCCCC)CCCCCCCC [Compound 123] | 6.336 | 94.58 | 0.152 | 59.28 |
| CCCCCCCCCCC(=O)OCC(CCCCN(CCO)CCN(CCCCC(COC(=O)CCCCCCCCCC)COC(=O)CCCCCCCCCC)C1CCC1)COC(=O)CCCCCCCCCC [Compound 168] | 6.537 | 91.48 | 0.107 | 78.08 |
| CCCCCCCCC(CCCCCCCC)COC(=O)CCCCCN(CCO)CCN(CCCCCC(=O)OCC(CCCCCCCC)CCCCCCCC)CCC(C)C [Compound 118] | 6.044 | 94.10 | 0.121 | 57.96 |
